Counter-ions that a name gives are not always drawn.
Target: T1, Leukotriene D4 receptor (Cavia porcellus, UniProt Q2NNR5)
T1 construct: The trachea and lung were removed; from tissue; host or cells: guinea pig (male Hartley) trachea and lung, crude membrane fraction
T1 sequence (Q2NNR5 1-340): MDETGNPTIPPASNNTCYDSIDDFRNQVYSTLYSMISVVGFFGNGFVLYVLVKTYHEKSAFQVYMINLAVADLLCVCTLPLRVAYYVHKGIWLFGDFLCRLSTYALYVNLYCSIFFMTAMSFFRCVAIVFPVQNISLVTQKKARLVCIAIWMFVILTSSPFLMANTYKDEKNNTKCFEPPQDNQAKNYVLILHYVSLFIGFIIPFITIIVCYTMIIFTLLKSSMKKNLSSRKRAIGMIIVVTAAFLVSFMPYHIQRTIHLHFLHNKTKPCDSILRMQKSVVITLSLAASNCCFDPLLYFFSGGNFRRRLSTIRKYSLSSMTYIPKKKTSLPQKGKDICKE
Assay: 3H-Leukotriene D4 receptor binding (guinea pig crude lung membrane)
Details: 3H-Leukotriene D4 (0.3 nM), pH 7.5, 25° C., 30 minutes
Procedure: ^3 H-Leukotriene D4 receptor binding (i) Test Method (a) Crude lung membrane preparation Male Hartly strain guinea pigs were sacrificed by decapitation. The trachea and lung were removed and homogenized buffer (0.25M sucrose, 10 mM Tris-HCl pH 7.5, 0.1 mM EDTA) by using Polytoron (Kinematica). The homogenate was centrifuged (1000×g, 10 min) to remove tissue clumps and the supernatant was centrifuges (14000×g, 20 min) to yield pellets. The pellets were resuspended in buffer (5 mM Tris-HCl pH 7.5), homogenized with a teflon homogenizer and centrifuged (14000×g, 20 min) to yield pellets which were referred to as crude membrane fractions. The obtained pellets were stored at -70° C. until use. (b) ^3 H-Leukotriene D4 binding to preparation membrane Frozen crude membrane fractions were thawed and resuspended in Medium 1 (10 mM Tris-HCl pH 7.5, 10 mM CaCl2, 10 mM MgCl2, 5 mM cysteine, 5 mM glycine). In binding assays, ^3 H-Leukotriene D4 (0.3 nM) and drug were incubated with 100 μl of the membrane preparation in Medium 1 at 25° C. for 30 minutes in a final volume of 500 μl. Separation of receptor-bound from free ^3 H-Leukotriene D4 is achieved by immediate filtration through Whatman GF/B filters under vacuum and washed three times with 5 ml of ice-cold buffer (10 mM Tris-HCl pH 7.5). Non-specific binding was defined as binding in the presence of 1 μM Leukotriene D4. The radioactivity retained on rinsed filters was determined by a liquid-scintillation counter (Packerd TRI-CARB 4530).

SMILES	IC50
CC(C)(C)c1csc(-c2cc3cc(OCc4ccccc4CC(=O)O)ccc3o2)n1 [Example 51, 4-tert-butyl-2-[5-(2-carboxymethylphenylmethoxy)benzofuran-2-yl]thiazole hydrochloride]	13.8 nM
Cc1ccccc1S(=O)(=O)NC(=O)c1ccccc1COc1ccc2oc(-c3nc(C(C)(C)C)cs3)cc2c1 [Example 18, 4-tert-butyl-2-{5-[2-(2-methylbenzenesulfonamidocarbonyl)phenylmethoxy]benzofuran-2-yl}thiazole]	48.8 nM
CC(C)(Cc1ccc2oc(-c3nc(C(C)(C)C)cs3)cc2c1)C(=O)Nc1nnn[nH]1 [19-2), 4-tert-Butyl-2-[5-{2-methyl-2-(1H-tetrazol-5-yl)carbamoylpropyl}benzofuran-2-yl]thiazole]	67.7 nM

Further lines, results first:

IC50	SMILES
17.8 nM	CC(C)(C)c1csc(-c2cc3cc(OCc4cccc(-c5nnn[nH]5)c4)ccc3o2)n1 [13-2), 5-{3-[2-(4-tert-Butylthiazol-2-yl)benzofuran-5-yloxymethyl]phenyl}-1H-tetrazole]
38.2 nM	CC(C)(C)c1csc(-c2cc3cc(OCc4ccccc4Cc4nnn[nH]4)ccc3o2)n1 [Example 12, 5-{2-(2-(4-tert-butylthiazol-2-yl)benzofuran-5-yloxymethyl]phenylmethyl}-1H-tetrazole]

Reference: patent US5296495A, “Thiazolylbenzofuran derivatives and pharmaceutical composition comprising the same” (Fujisawa Pharmaceutical Co., Ltd., priority 1991, dated 1994)
